# Results published in patent US20240059677A1, “SUBSTITUTED PYRIMIDINE DERIVATIVES AS NICOTINIC ACETYLCHOLINESTERASE RECEPTOR ALPHA 6 MODULATOR” (priority 2020, published 2024).
# pIC50: −log10 of the molar value. Like-named read-outs stand apart in the source and are kept apart here.
# Biological target: T1, human nAChRα6-α3 chimera, in addition to β2 and β3^V273S subunits (Homo sapiens, UniProt P32297+Q15825)
# T1 construct: expressed in transfected cells
# Test: fluorescence-based calcium assay: inhibition of nicotine stimulated nAChRα6 activity (FLIPR)
# Conditions: HEK cell line stably expressing the receptor, 10 min pre-incubation, nicotine EC80, 10-point curve, duplicate wells; for pIC50: read-out: IC50
# Procedure, shortened: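 HEK cells stably expressing the human α6-α3 chimera with β2 and β3^V273S were loaded with calcium dye at 30° C. Compounds were pre-incubated for 10 min before nicotine at EC80, and the fluorescence change was read on a FLIPR. Ten-point half-log concentration-response, duplicate wells.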
# T1 sequence (Q05901 25-458 V273S): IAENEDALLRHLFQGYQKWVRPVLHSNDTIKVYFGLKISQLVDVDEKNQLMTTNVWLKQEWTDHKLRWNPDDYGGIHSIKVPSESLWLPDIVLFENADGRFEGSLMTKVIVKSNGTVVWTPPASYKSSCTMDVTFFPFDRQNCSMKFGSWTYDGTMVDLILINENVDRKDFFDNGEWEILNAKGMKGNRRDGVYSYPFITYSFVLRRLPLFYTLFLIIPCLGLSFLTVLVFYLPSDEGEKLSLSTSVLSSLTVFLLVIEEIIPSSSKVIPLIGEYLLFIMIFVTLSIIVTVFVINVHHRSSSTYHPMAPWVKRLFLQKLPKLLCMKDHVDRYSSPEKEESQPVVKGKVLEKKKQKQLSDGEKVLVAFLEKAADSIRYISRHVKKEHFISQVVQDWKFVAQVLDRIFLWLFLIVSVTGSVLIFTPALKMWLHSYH
# T1 sequence (P17787 26-502, stated change not applied, further chain): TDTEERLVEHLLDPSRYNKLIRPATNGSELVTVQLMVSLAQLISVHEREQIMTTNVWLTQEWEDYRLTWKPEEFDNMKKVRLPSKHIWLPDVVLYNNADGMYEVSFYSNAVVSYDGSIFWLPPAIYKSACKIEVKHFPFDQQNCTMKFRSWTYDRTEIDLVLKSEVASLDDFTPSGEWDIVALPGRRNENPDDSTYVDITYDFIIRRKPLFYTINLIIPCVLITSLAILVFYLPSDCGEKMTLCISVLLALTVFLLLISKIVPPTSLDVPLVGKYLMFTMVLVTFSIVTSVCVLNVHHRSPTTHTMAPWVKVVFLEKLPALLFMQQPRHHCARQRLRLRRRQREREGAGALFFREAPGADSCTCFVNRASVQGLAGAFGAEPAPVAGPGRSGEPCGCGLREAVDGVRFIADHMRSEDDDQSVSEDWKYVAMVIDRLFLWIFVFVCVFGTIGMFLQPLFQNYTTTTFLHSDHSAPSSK
# T1 sequence (Q15825+P32297 fused with the stated changes): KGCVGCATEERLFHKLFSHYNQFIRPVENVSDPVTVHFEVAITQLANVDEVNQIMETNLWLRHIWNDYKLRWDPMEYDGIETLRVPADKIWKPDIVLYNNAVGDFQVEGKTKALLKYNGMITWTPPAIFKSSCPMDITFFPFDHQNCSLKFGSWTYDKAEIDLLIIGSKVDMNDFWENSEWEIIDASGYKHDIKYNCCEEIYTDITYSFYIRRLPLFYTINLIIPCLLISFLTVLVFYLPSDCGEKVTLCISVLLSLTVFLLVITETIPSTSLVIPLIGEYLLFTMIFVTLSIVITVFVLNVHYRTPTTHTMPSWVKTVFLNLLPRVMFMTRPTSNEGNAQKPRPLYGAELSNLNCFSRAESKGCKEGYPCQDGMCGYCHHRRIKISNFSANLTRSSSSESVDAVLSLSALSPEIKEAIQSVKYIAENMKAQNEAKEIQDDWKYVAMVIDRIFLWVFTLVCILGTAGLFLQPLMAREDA
Compound,pIC50,IC50 (IC50 (μM))
"Cc1nc(NC2CCN3CCCC23)ncc1-c1ccc(OC(F)(F)F)cc1F (single isomer, unassigned) [Example 97b, N-(5-(2-fluoro-4-(trifluoromethoxy)phenyl)-4-methyl-pyrimidin-2-yl)hexahydro-1H-pyrrolizin-1-amine]",6.82,
"Cc1nc(NC(C)[C@@H]2CCCN2C)ncc1-c1ccc(C(F)(F)F)cc1F (single isomer, unassigned) [Example 132a, 5-(2-fluoro-4-(trifluoromethyl)phenyl)-4-methyl-N-((1*R)-1-((2S)-1-methylpyrrolidin-2-yl)ethyl)pyrimidin-2-amine]",7.04,
"Cc1nc(NCC2CCCN2C)nnc1-c1ccc(F)cc1F (stereo not shown) [Example 15, 6-(2,4-difluorophenyl)-5-methyl-N-((1-methylpyrrolidin-2-yl)methyl)-1,2,4-triazin-3-amine]",5.71,
"COc1ccc(-c2cnc(NC3CCCC(OC)C3)nc2C)c(F)c1 (single isomer, unassigned) [Example 53a, 5-(2-fluoro-4-methoxyphenyl)-N-(3-methoxycyclohexyl)-4-methyl-pyrimidin-2-amine]",5.91,
"Cc1nc(NC[C@H]2CCCN2C)ncc1-c1ccc(C(F)(F)F)cc1F [Example 91a, (R)-5-(2-fluoro-4-(trifluoromethyl)phenyl)-4-methyl-N-((1-methylpyrrolidin-2-yl)methyl)pyrimidin-2-amine]",8.10,
"Cc1nc(NC[C@@H]2CCCN2)ncc1-c1ccc(C(F)(F)F)cc1F [Example 103, (S)-5-(2-fluoro-4-(trifluoromethyl)phenyl)-4-methyl-N-(pyrrolidin-2-ylmethyl)pyrimidin-2-amine]",7.40,
"Cc1nc(NC2CCN(C)C2)ncc1-c1ccc(F)cc1F (stereo not shown) [Example 29, 5-(2,4-difluorophenyl)-4-methyl-N-(1-methylpyrrolidin-3-yl)pyrimidin-2-amine]",7.02,
"Cc1nc(NC2CC(N(C)C)C2)ncc1-c1ccc(F)cc1F (single isomer, unassigned) [Example 68a, N^1-(5-(2,4-difluorophenyl)-4-methyl-pyrimidin-2-yl)-N^3,N^3-dimethylcyclobutane-1,3-diamine]",7.11,
"COc1ccc(-c2cnc(NC3CCN(C(C)C)CC3)nc2C)c(F)c1 [Example 41, 5-(2-fluoro-4-methoxyphenyl)-N-(1-isopropylpiperidin-4-yl)-4-methyl-pyrimidin-2-amine]",7.09,
"Cc1nc(NCC2C(F)CCN2C)ncc1-c1ccc(F)cc1F (single isomer, unassigned) [Example 96b, 5-(2,4-difluorophenyl)-N-((3-fluoro-1-methylpyrrolidin-2-yl)methyl)-4-methyl-pyrimidin-2-amine]",7.00,
"COc1ccc(-c2nnc(NCC3CCCN3C)nc2C)c(F)c1 (single isomer, unassigned) [Example 54a, 6-(2-fluoro-4-methoxyphenyl)-5-methyl-N-((1-methylpyrrolidin-2-yl)methyl)-1,2,4-triazin-3-amine]",6.48,
"CN1CCCC(CNc2ncc(-c3ccc(F)cc3)cn2)C1 (stereo not shown) [Example 4, 5-(4-fluorophenyl)-N-((1-methylpiperidin-3-yl)methyl)pyrimidin-2-amine]",6.68,
"Cc1nc(NC2CC(N(C)C)C2)ncc1-c1ccc(F)cc1F (single isomer, unassigned) [Example 68b, N^1-(5-(2,4-difluorophenyl)-4-methyl-pyrimidin-2-yl)-N^3,N^3-dimethylcyclobutane-1,3-diamine]",7.17,
"Cc1nc(NC2CCCN(C)C2)ncc1-c1ccc(F)cc1F (single isomer, unassigned) [Example 77b, 5-(2,4-difluorophenyl)-4-methyl-N-(1-methylpiperidin-3-yl)pyrimidin-2-amine]",7.03,
"Cc1nc(NCC2N(C)CCC2(F)F)ncc1-c1ccc(F)cc1F (single isomer, unassigned) [Example 84b, N-((3,3-difluoro-1-methylpyrrolidin-2-yl)methyl)-5-(2,4-difluorophenyl)-4-methyl-pyrimidin-2-amine]",5.78,
"COc1ccc(-c2cnc(NC3CCC(N(C)C)C3)nc2C#N)c(F)c1 (single isomer, unassigned) [Example 38b, 2-((3-(dimethylamino)cyclopentyl)amino)-5-(2-fluoro-4-methoxyphenyl) pyrimidine-4-carbonitrile]",7.15,
"Cc1nc(NCC2NCCC2(F)F)ncc1-c1ccc(F)cc1F (single isomer, unassigned) [Example 83a, 5-(2,4-difluorophenyl)-N-((3,3-difluoropyrrolidin-2-yl)methyl)-4-methyl-pyrimidin-2-amine]",5.94,
"Cc1nc(NC2CC(C)(C)NC(C)(C)C2)ncc1-c1ccc(C(F)(F)F)cc1F [Example 126, 5-(2-fluoro-4-(trifluoromethyl)phenyl)-4-methyl-N-(2,2,6,6-tetramethylpiperidin-4-yl)pyrimidin-2-amine]",6.59,
"Cc1nc(N[C@H]2CCC[C@H](N)C2)ncc1-c1ccc(C(F)(F)F)cc1F [Example 125, (1S,3S)—N^1-(5-(2-fluoro-4-(trifluoromethyl)phenyl)-4-methyl-pyrimidin-2-yl)cyclohexane-1,3-diamine]",6.65,

Compound,pIC50,IC50 (IC50 (μM))
"COc1ccc(-c2cnc(NCC3CCCCN3C)nc2C)c(F)c1 (stereo not shown) [Example 17, 5-(2-fluoro-4-methoxyphenyl)-4-methyl-N-((1-methylpiperidin-2-yl)methyl) pyrimidin-2-amine]",7.70,
"COc1ccc(-c2nnc(NCCC3CCCN3C)nc2C)c(F)c1 (stereo not shown) [Example 23, 6-(2-fluoro-4-methoxyphenyl)-5-methyl-N-(2-(1-methylpyrrolidin-2-yl)ethyl)-1,2,4-triazin-3-amine]",6.63,
"Cc1nc(NCC[C@H]2CCCN2C)ncc1-c1ccc(C(F)(F)F)cc1F [Example 106a, (R)-5-(2-fluoro-4-(trifluoromethyl)phenyl)-4-methyl-N-(2-(1-methylpyrrolidin-2-yl)ethyl)pyrimidin-2-amine]",6.98,
"Cc1nc(NC[C@@H]2CCCN2C)ncc1-c1ccc(F)cc1C(F)(F)F [Example 92b, (S)-5-(4-fluoro-2-(trifluoromethyl)phenyl)-4-methyl-N-((1-methylpyrrolidin-2-yl)methyl)pyrimidin-2-amine]",7.14,
"Cc1nc(NC2CCC(S(C)(=O)=O)C2)ncc1-c1ccc(F)cc1F (stereo not shown) [Example 52, 5-(2,4-difluorophenyl)-4-methyl-N-(3-(methylsulfonyl)cyclopentyl) pyrimidin-2-amine]",5.82,
"Cc1nc(NCC2CCCN2C)nnc1-c1ccc(F)cc1F (single isomer, unassigned) [Example 74b, 6-(2,4-difluorophenyl)-5-methyl-N-((1-methylpyrrolidin-2-yl)methyl)-1,2,4-triazin-3-amine]",5.83,
"Cc1nc(NC[C@H]2CCCN2)ncc1-c1ccc(F)cc1F [Example 94a, (R)-5-(2,4-difluorophenyl)-4-methyl-N-(pyrrolidin-2-ylmethyl)pyrimidin-2-amine]",8.30,
"CN(C)C1CCC(Nc2ncc(-c3ccc(F)cc3F)c(C#N)n2)C1 (single isomer, unassigned) [Example 58a, 5-(2,4-difluorophenyl)-2-((3-(dimethylamino)cyclopentyl)amino) pyrimidine-4-carbonitrile]",7.42,
"CCN1CCCC1CNc1ncc(-c2ccc(C(F)(F)F)cc2F)c(C)n1 (stereo not shown) [Example 98, N-((1-ethylpyrrolidin-2-yl)methyl)-5-(2-fluoro-4-(trifluoromethyl)phenyl)-4-methyl-pyrimidin-2-amine]",7.17,
"Cc1nc(N[C@@H]2CCNC2)ncc1-c1ccc(C(F)(F)F)cc1F [Example 110, (R)-5-(2-fluoro-4-(trifluoromethyl)phenyl)-4-methyl-N-(pyrrolidin-3-yl)pyrimidin-2-amine]",7.27,
"CCN1CCCC1CNc1ncc(-c2ccc(F)cc2F)c(C)n1 (stereo not shown) [Example 85, 5-(2,4-difluorophenyl)-N-((1-ethylpyrrolidin-2-yl)methyl)-4-methyl-pyrimidin-2-amine]",7.29,
"Cc1nc(NCCC2CCCN2C)ncc1-c1ccccc1 (stereo not shown) [Example 1, 4-methyl-N-(2-(1-methylpyrrolidin-2-yl)ethyl)-5-phenylpyrimidin-2-amine]",7.32,
"Cc1nc(NC2CCN3CCCC23)ncc1-c1ccc(OC(F)(F)F)cc1F (single isomer, unassigned) [Example 97c, N-(5-(2-fluoro-4-(trifluoromethoxy)phenyl)-4-methyl-pyrimidin-2-yl)hexahydro-1H-pyrrolizin-1-amine]",6.74,
"Cc1nc(NC[C@@]2(C)CCCN2C)ncc1-c1ccc(C(F)(F)F)cc1F [Example 137, (R)—N-((1,2-dimethylpyrrolidin-2-yl)methyl)-5-(2-fluoro-4-(trifluoromethyl)phenyl)-4-methyl-pyrimidin-2-amine]",,0.11 µM
"Cc1nc(NC2CCCC(N(C)C)C2)nnc1-c1ccc(F)cc1F (single isomer, unassigned) [Example 39a, N^1-(6-(2,4-difluorophenyl)-5-methyl-1,2,4-triazin-3-yl)-N^3,N^3-dimethylcyclohexane-1,3-diamine]",6.04,
"[2H]C([2H])([2H])N1CCC[C@H]1CNc1ncc(-c2ccc(F)cc2F)c(C)n1 [Example 90a, (S)-5-(2,4-difluorophenyl)-4-methyl-N-((1-(trideuteriomethyl)pyrrolidin-2-yl)methyl)pyrimidin-2-amine]",6.68,
"COc1ccc(-c2nnc(NC3CCCN(C)C3)nc2C)c(F)c1 (single isomer, unassigned) [Example 69a, 6-(2-fluoro-4-methoxyphenyl)-5-methyl-N-(1-methylpiperidin-3-yl)-1,2,4-triazin-3-amine]",6.36,
"Cc1nc(NC[C@@H]2CN(C)CCO2)ncc1-c1ccc(C(F)(F)F)cc1F (single isomer, unassigned) [Example 108a]",7.07,
